Assays:
[1] = computed value; Table 1 footnote b; cited from earlier work
rat brain TSPO = rat brain TSPO (Rattus norvegicus, UniProt P16257); type: binding; conditions: for LipE: pKi minus clogD; for binding affinity for TSPO (in words): locked amide rotamers of ligand 22
[2] = type: physicochemical; conditions: n-octanol/sodium phosphate buffer, pH 7.4

SMILES	cLogD [1]	Ki (rat brain TSPO) [nM]	LipE (rat brain TSPO)	logD [2]	binding affinity for TSPO (in words) (rat brain TSPO)
CCC(C)N(C)C(=O)c1cc2ccccc2c(-c2ccccc2Cl)n1 (centres unmarked) [Ligand 1, PK11195]	3.97	–	–	–	–
CC(Oc1cc(-c2ccccn2)nc2ncccc12)C(=O)N(C)c1ccccc1 (centres unmarked) [Ligand 20, N-Methyl-N-phenyl-2-[2-(pyridin-2-yl)-1,8-naphthyridin-4-yloxy]propanamide]	–	0.5 ± 0.1	6.5 ± 0.1	2.48	–
CC(Oc1cc(-c2ncccn2)nc2ccccc12)C(=O)N(C)c1ccccc1 (centres unmarked) [Ligand 21, N-Methyl-N-phenyl-2-[2-(pyrimidin-2-yl)quinolin-4-yl]oxypropanamide]	–	0.53 ± 0.08	6.6 ± 0.1	2.48	–
CC(Oc1cc(-c2ccccn2)nc2ccccc12)C(=O)N(C)C(C)C (centres unmarked) [Ligand 22, N-Isopropyl-N-methyl-2-[2-(pyridin-2-yl)quinolin-4-yloxy]propanamide]	–	0.76 ± 0.09	6.58 ± 0.05	–	–
CC(Oc1cc(-c2ccccn2)nc2ccccc12)C(=O)N(C)c1ccc(F)cc1 (centres unmarked) [Ligand 23, N-(4-Fluorophenyl)-N-methyl-2-[2-(pyridin-2-yl)quinolin-4-yloxy]propanamide]	–	0.09 ± 0.01	5.80 ± 0.06	–	–
COc1cc(OC(C)C(=O)N(C)c2ccccc2)c2cccnc2n1 (centres unmarked) [Ligand 27, 2-(2-Methoxy-1,8-naphthyridin-4-yloxy)-N-methyl-N-phenylpropanamide]	–	7.8 ± 0.6	6.09 ± 0.04	–	–
CC(Oc1cc(-n2cccc2)nc2ccccc12)C(=O)N(C)c1ccccc1 (centres unmarked) [Ligand 29, 2-[2-(1H-Pyrrol-1-yl)quinolin-4-yloxy]-N-methyl-N-phenylpropanamide]	–	0.22 ± 0.03	6.13 ± 0.07	–	–
CN1C(=O)C(Oc2cc(-c3ccccn3)nc3ccccc23)CC1(C)C (centres unmarked) [Ligand 33, 1,5,5-Trimethyl-3-[2-(pyridin-2-yl)quinolin-4-yloxy]pyrrolidin-2-one]	–	> 1000	<3.93	–	–
CC(C)N1CCC(Oc2cc(-c3ccccn3)nc3ccccc23)C1=O (centres unmarked) [Ligand 34, 1-Isopropyl-3-[2-(pyridin-2-yl)quinolin-4-yloxy]pyrrolidin-2-one]	–	> 1000	<3.36	–	lacked any appreciable binding affinity
O=[N+]([O-])c1ccccc1NCc1ccccn1 [Ligand 35, 2-Nitro-N-(pyridin-2-ylmethyl)aniline]	–	–	–	–	lacked any appreciable binding affinity
CC(On1c(-c2ccccn2)nc2ccccc21)C(=O)N(C)C(C)C (centres unmarked) [Ligand 36, N-Isopropyl-N-methyl-2-(2-(pyridin-2-yl)-1H-benzo[d]imidazol-1-yloxy)propanamide]	–	> 1000	<2.47	–	–

Source: article PMC5097887 (European journal of medicinal chemistry, 2016)
